Assays:
12-Lipoxygenase = target: T1, 12-Lipoxygenase (Rattus norvegicus, UniProt F1LQ70); experiment: 12-Lipoxygenase inhibitory action: 12-HETE production in Wistar rat platelets (HPLC); assay type: cell-based; conditions: read-out: 12-Lipoxygenase Inhibitory Action, % Inhibition (IE); for inhibition at 100 µM: 10^-4 M; for inhibition at 10 µM: 10^-5 M; for inhibition at 1 µM: 10^-6 M; for inhibition at 0.1 µM: 10^-7 M
T1 construct: from tissue; host or cells: Wistar rat platelets (PRP mixed with PPP, from citrated aortic blood)
T1 sequence (F1LQ70 1-663): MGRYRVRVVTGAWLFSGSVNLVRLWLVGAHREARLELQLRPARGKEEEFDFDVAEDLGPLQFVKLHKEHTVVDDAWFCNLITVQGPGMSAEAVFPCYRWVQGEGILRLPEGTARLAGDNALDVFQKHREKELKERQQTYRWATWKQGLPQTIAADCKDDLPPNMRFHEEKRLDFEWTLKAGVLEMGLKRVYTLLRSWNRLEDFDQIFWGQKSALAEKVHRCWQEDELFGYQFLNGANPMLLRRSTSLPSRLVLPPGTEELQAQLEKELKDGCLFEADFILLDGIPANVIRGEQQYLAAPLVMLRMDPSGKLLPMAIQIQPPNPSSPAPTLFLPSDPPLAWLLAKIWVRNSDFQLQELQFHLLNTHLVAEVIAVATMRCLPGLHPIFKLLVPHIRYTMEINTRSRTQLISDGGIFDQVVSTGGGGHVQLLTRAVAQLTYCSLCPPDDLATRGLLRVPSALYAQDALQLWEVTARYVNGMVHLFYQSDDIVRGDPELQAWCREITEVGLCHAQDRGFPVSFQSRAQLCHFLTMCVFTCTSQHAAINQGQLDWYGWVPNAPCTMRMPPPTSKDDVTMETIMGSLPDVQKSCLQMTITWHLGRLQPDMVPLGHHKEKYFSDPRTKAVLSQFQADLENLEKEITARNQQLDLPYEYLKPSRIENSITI
Method: Through the descending aorta of a Wistar rat, 10 ml of blood was collected, under anesthesia, together with citric acid of a volume corresponding to 10%. PRP and PPP were respectively prepared, then they were mixed to make the number of platelets to be 10^9 /ml. To 2.5 μl each of the test solutions prepared in advance (final concentrations of the test compounds : 100 μm, 10 μm, 1 μm and 0.1 μm) was added 0.225 ml of the platelet solution. The respective solutions were kept at 37° C. for 5 minutes, to which was added 25 μl each of arachidonic acid solution (50 μg/ml) , then the respective mixtures were shaken immediately. The reaction was allowed to proceed at 37° C. for 15 minutes, and there was added ethanol (1 ml) to stop the reaction. The reaction mixture was subjected to a centrifuge (2000 rpm) for 5 minutes. One ml of the supernatant was taken, which was mixed with 1 ml of water. 100 μl of this mixture solution was subjected to high performance liquid chromatography to quantitatively determine 12-HETE. The detection was conducted at 240 nm. The calculation of the inhibition rate was conducted in a manner as in the case of 5-HETE.

5-Lipoxygenase = target: T2, 5-Lipoxygenase (Rattus norvegicus, UniProt P12527); experiment: 5-Lipoxygenase inhibiting action: 5-HETE production in rat basophilic leukemia (RBL-1) cells (HPLC); assay type: cell-based; conditions: read-out: Effect of Inhibiting 5-Lipoxygenase, % Inhibition (IE); for inhibition at 10 µM: 10^-5 M; for inhibition at 1 µM: 10^-6 M; for inhibition at 0.1 µM: 10^-7 M; for inhibition at 0.01 µM: 10^-8 M
T2 construct: endogenous in cells; host or cells: RBL-1 (rat basophilic leukemia) cells
T2 sequence (P12527 1-673): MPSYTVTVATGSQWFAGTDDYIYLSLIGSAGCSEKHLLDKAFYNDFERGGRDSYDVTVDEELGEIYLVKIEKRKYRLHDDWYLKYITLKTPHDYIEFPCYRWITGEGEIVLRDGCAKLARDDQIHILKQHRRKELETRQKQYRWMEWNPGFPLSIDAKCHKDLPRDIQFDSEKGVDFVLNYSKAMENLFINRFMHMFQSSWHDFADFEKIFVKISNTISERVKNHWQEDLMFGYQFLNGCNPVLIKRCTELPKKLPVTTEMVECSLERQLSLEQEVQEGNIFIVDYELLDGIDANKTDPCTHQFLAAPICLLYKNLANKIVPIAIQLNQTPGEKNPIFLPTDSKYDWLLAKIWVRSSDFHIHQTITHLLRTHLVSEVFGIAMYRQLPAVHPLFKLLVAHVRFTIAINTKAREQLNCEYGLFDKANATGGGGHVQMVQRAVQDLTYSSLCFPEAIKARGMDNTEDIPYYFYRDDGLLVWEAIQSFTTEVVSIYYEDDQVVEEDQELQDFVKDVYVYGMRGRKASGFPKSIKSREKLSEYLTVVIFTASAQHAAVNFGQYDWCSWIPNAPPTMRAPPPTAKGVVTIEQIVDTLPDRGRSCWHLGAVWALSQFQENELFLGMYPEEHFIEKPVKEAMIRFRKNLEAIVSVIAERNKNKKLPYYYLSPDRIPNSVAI
Method: In 0.5 ml of MCM (mast cell medium) was suspended 10^7 of rat basophilic leukemia (RBL-1) cells. To this suspension was added the test solution previously prepared [consisting of 0.5 ml of MCM, 50 μg of arachidonic acid, 10 μg of calcium ionophore A-23187 and the test compound (final concentrations 10 μm, 1 μm, 0.1 μm and 0.01 μm)], and the reaction was allowed to proceed at 37° C. for 20 minutes. To the reaction mixture was added 4 ml of ethanol, which was shaken sufficiently, followed by leaving the resultant mixture standing for 10 minutes at room temperatures. The resultant mixture was subjected to a centrifuge (2000 rpm) for 10 minutes, then the supernatant was separated. Thus-separated supernatant was concentrated to dryness under reduced pressure. To the concentrate was added 0.5 ml of a 60% aqueous methanol. A 100μl Portion of this solution was taken and subjected to high performance liquid chromatography to perform quantitative determination of 5-HETE (5-hydroxyeicosatetraenoic acid). UV absorption of 5-HETE at 237 nm was measured with a UV absorption monitor. The inhibitory effect (IE) of 5-HETE is expressed by (1-b/a)×100. In this formula, a means the height of the peak or the area of the peak in the case of presence of no compound (I), while b means the height of the peak or the area of the peak in the case of presence of the compound (I).

| Compound | inhibition at 100 µM (12-Lipoxygenase) [%] | inhibition at 10 µM (12-Lipoxygenase) [%] | inhibition at 1 µM (12-Lipoxygenase) [%] | inhibition at 0.1 µM (12-Lipoxygenase) [%] | inhibition at 10 µM (5-Lipoxygenase) [%] | inhibition at 1 µM (5-Lipoxygenase) [%] | inhibition at 0.1 µM (5-Lipoxygenase) [%] | inhibition at 0.01 µM (5-Lipoxygenase) [%] |
| --- | --- | --- | --- | --- | --- | --- | --- | --- |
| Cc1c(C)c2c(c(C)c1O)CC(C)(/C=C/c1ccccc1)O2 (stereo not drawn) [Compound 18] | 100 | 100 | 89 | 18 |  |  |  |  |
| CCCCCCCCCC1(C)Cc2c(C)c(O)c(C)c(C)c2O1 (stereo not drawn) [Compound 39] | 100 | 100 | 32 |  |  |  |  |  |
| Cc1c(C)c2c(c(C)c1O)CC(C)(CCc1ccc(F)cc1)O2 (stereo not drawn) [Compound 32] | 99 | 99 | 45 | 2 |  |  |  |  |
| COc1ccc(CCC2(C)Cc3c(C)c(O)c(C)c(C)c3O2)cc1 (stereo not drawn) [Compound 26] | 100 | 99 | 28 |  |  |  |  |  |
| Cc1c(C)c2c(c(C)c1O)CC(C)(CC#N)O2 (stereo not drawn) [Compound 5, 5-hydroxy-2-cyanomethyl-2,4,6,7-tetramethyl-2,3-dihydrobenzofuran] | 97 | 78 | 14 |  | 100 | 100 | 57 | 0 |
| Cc1c(C)c2c(c(C)c1O)CC(C)(C=Cc1ccccc1)O2 (stereo not drawn) [Compound 10] | 96 | 92 | 52 | 45 | 100 | 99 | 98 | 12 |
| Cc1c(C)c2c(c(C)c1O)CC(C)(/C=C\c1ccc(F)cc1)O2 (stereo not drawn) [Compound 30] | 100 | 100 | 98 | 21 |  |  |  |  |
| Cc1c(C)c2c(c(C)c1O)CC(C)(CCCCc1ccccc1)O2 (stereo not drawn) [Compound 23] | 100 | 100 | 92 | 19 |  |  |  |  |
| CCCCCCCCCCCCCC1(C)Cc2c(C)c(O)c(C)c(C)c2O1 (stereo not drawn) [Compound 41] | 99 | 74 | 20 | 9 |  |  |  |  |
| COc1ccc(/C=C\C2(C)Cc3c(C)c(O)c(C)c(C)c3O2)cc1 (stereo not drawn) [Compound 24] | 100 | 99 | 98 | 13 |  |  |  |  |
| Cc1c(C)c2c(c(C)c1O)CC(C)(CCc1ccccc1)O2 (stereo not drawn) [Compound 12] | 95 | 82 | 11 |  | 100 | 100 | 90 | 46 |
| COc1cccc(CCC2(C)Cc3c(C)c(O)c(C)c(C)c3O2)c1 (stereo not drawn) [Compound 29] | 100 | 99 | 58 | 7 |  |  |  |  |
| Cc1ccc(CCC2(C)Cc3c(C)c(O)c(C)c(C)c3O2)cc1 (stereo not drawn) [Compound 35] | 99 | 99 | 49 | 8 |  |  |  |  |
| Cc1c(C)c2c(c(C)c1O)CC(C)(CCCc1ccccc1)O2 (stereo not drawn) [Compound 20] | 100 | 99 | 97 | 9 |  |  |  |  |
| COc1cccc(/C=C\C2(C)Cc3c(C)c(O)c(C)c(C)c3O2)c1 (stereo not drawn) [Compound 27] | 100 | 100 | 99 | 19 |  |  |  |  |

The next lines start with the values.

| inhibition at 100 µM (12-Lipoxygenase) [%] | inhibition at 10 µM (12-Lipoxygenase) [%] | inhibition at 1 µM (12-Lipoxygenase) [%] | inhibition at 0.1 µM (12-Lipoxygenase) [%] | inhibition at 10 µM (5-Lipoxygenase) [%] | inhibition at 1 µM (5-Lipoxygenase) [%] | inhibition at 0.1 µM (5-Lipoxygenase) [%] | inhibition at 0.01 µM (5-Lipoxygenase) [%] | Compound |
| --- | --- | --- | --- | --- | --- | --- | --- | --- |
| 100 | 100 | 100 | 97 |  |  |  |  | CCC/C=C\C1(C)Cc2c(C)c(O)c(C)c(C)c2O1 (stereo not drawn) [Compound 36] |
| 98 | 88 | 16 | 2 | 100 | 100 | 52 | 4 | Cc1c(C)c2c(c(C)c1O)CC(C)(CBr)O2 (stereo not drawn) [Compound 6] |
| 100 | 100 | 99 | 25 |  |  |  |  | Cc1c(C)c2c(c(C)c1O)CC(C)(/C=C\Cc1ccccc1)O2 (stereo not drawn) [Compound 15] |
| 99 | 99 | 90 | 3 |  |  |  |  | CCCCCCC/C=C\C1(C)Cc2c(C)c(O)c(C)c(C)c2O1 (stereo not drawn) [Compound 38] |
| 99 | 96 | 48 | 6 |  |  |  |  | CCCCCCCCCCC/C=C\C1(C)Cc2c(C)c(O)c(C)c(C)c2O1 (stereo not drawn) [Compound 40] |
| 100 | 100 | 31 | 2 |  |  |  |  | CCCCCC1(C)Cc2c(C)c(O)c(C)c(C)c2O1 (stereo not drawn) [Compound 37] |
| 100 | 100 | 28 | 2 |  |  |  |  | Cc1ccc(/C=C\C2(C)Cc3c(C)c(O)c(C)c(C)c3O2)cc1 (stereo not drawn) [Compound 33] |
| 100 | 100 | 98 | 21 |  |  |  |  | Cc1c(C)c2c(c(C)c1O)CC(C)(/C=C\CCc1ccccc1)O2 (stereo not drawn) [Compound 21] |
| 100 | 99 | 98 | 22 |  |  |  |  | Cc1c(C)c2c(c(C)c1O)CC(C)(/C=C/Cc1ccccc1)O2 (stereo not drawn) [Compound 17] |
